The text below walks through data of PMC10675445, “Enolase Inhibitors as Early Lead Therapeutics against Trypanosoma brucei” (Pathogens, 2023).

One data set addresses T. brucei ENO (TbENO) (Trypanosoma brucei brucei, UniProt Q38BV6). The experiment in a line: Recombinant TbENO coupled enzyme assay. The class given is biochemical. The procedure:
Recombinant ENO and ENO Assays—Recombinant TbENO was expressed and purified using an approach modified from the purification of another trypanosome glycolytic enzyme. Briefly, the full-length open reading frame was cloned from Trypanosoma brucei brucei (a 427 strain) genomic DNA into the bacterial expression vector pQE-30 (Qiagen, MD, USA). This plasmid was transformed into M15pREP cells and protein expression induced with 0.25 mM isopropyl-b-d-1-thiogalactopyranoside (IPTG) overnight at 37 °C. Protein was purified on Ni-NTA agarose (Qiagen) as described.
ENO assays were performed in triplicate using a coupled reaction to measure enzyme activity. In short, enzyme (~50 nM) in assay buffer (100 mM HEPES, pH 8.0, 3.3 mM MgSO4, 120 mM KCl, 1.75 mM ADP, 1 U of pyruvate kinase/lactate dehydrogenase, and 0.4 mM NADH) was added to black 96-well plates. Reactions were initiated by the addition of substrate (3.75 mM 2-PG) and the rate of reduction in fluorescence emission at A460 was measured after excitation at A360 to monitor NAD^+ production. Assays were scored on a Biotek Synergy H1 microplate reader and kinetic analyses were performed with Prism 9.0 (GraphPad Software, San Diego, CA, USA) using the Michaelis–Menten model. To assess the impact of different pH on enzyme activity, the HEPES […] in the standard buffer was replaced with Good’s buffers 2-morpholinoethanesulfonic acid (MES, pH 6.5), HEPES (pH 7.0 to pH 8.5), or sodium borate (pH 9.0). For assays involving inhibitors, compounds (in DMSO) were incubated with the enzyme in assay buffer (pH 8.0) for 15 min prior to initiation of the reaction. All assays were performed in triplicate with vehicle control (DMSO) included.

The test system of another data set is T. brucei BSF parasites. The experiment in a line: BSF viability assay (CellTiter Blue). The class given is cell-based, Trypanosoma brucei brucei. The procedure:
(§1) Trypanosome growth, viability assays, and Western blotting—T. brucei brucei 90-13 BSF parasites were cultured in HMI-9 medium supplemented with 10% heat-inactivated FBS and 10% Serum Plus (Sigma-Aldrich, St. Louis, MO, USA) at 37 °C in 5% CO2, while T. brucei brucei PF 29-13 were cultured in SDM-79 supplemented with 10% heat-inactivated FBS [16]. For BSF viability assays, parasites (1 × 10^5/mL) were seeded into 384-well black polystyrene plates in the presence of a compound or equivalently diluted carrier. CellTiter Blue reagent (Promega, Madison, WI, USA) was added after two days of culture, the plates incubated an additional 1 h, and fluorescence emission at A585 measured after excitation at A546. For PF viability assays, 1 × 10^6 parasites in standard medium, or 5 × 10^6 parasites in glucose-free medium, were introduced into black 96-well plates in standard culture medium in the presence of a compound or carrier, with CellTiter Blue reagent added after 48 h of culture. Plates were incubated for 1 h and fluorescence emission scored as described for BSF. Fluorescence values were used to calculate percent cell growth inhibition (based on controls) for each concentration of compound tested. Averages of the triplicates were calculated and fit to dose-response curves for the determination of EC50 values, using Prism 9.0 (GraphPad Software, San Diego, CA, USA).

The next data set has as its system HsENO2. Details: method as in PMID 33230295. The note with it: cited from earlier work; for IC50: included for comparative purposes, source not given.
The next data set has as its system ENO1-deficient tumors. On the set-up: method as in PMID 33230295. Conditions: rodent model; cited from earlier work.
Details of data set [1]: method as in PMID 33230295. The note with it: mammalian animal models, including non-human primates; cited from earlier work.
The test system of another data set is T. brucei PF parasites. The data set can be described thus: PF viability assay (CellTiter Blue). The class given is cell-based. Conditions: Trypanosoma brucei, 48 h. The procedure: as §1
Data set [2] relates to BSF parasites. The experiment in a line: Trypanosome ROS assay (flow cytometry). Conditions: 30 min, POMHEX 50 or 100 µM, H2O2 125 µM. The class given is cell-based, Trypanosoma brucei. The procedure:
BSF parasites (5 × 10^6 cells) were pelleted (800 × g, 10 min) then resuspended in PBS supplemented with 0.1% glucose (PBSg). Samples were treated with either ROS stain (Total Reactive Oxygen Species (ROS) Assay Kit 520 nm, Invitrogen) or DMSO and then incubated at 37 °C in 5% CO2 for 60 min. Samples were then treated with 125 μM H2O2, 50 μM POMHEX, 100 μM POMHEX, or equal volume DMSO, incubated for 30 min, and analyzed on a CytoFLEX flow cytometer (Beckman Coulter). Events (10,000) were recorded and analyzed using FCSexpress software. Median fluorescence intensity (MFI) was calculated, and Welch’s t-tests were performed (ns: not statistically significant, * p < 0.05, ** p < 0.01, *** p < 0.001). Each experiment was performed with biological triplicates in technical triplicates.

The subject of data set [3] is BSF parasites. The experiment in a line: Propidium iodide exclusion viability (flow cytometry). The data set is classed as cell-based, Trypanosoma brucei. Conditions: 30 min. The procedure:
To monitor apoptotic-like responses, 5 × 10^6 parasites were collected, resuspended in fresh media containing 125 μM H2O2, 5 μM POMHEX, 50 μM POMHEX, 100 μM POMHEX, or equal volume of DMSO, and incubated at 37 °C in 5% CO2 for 30 min. Cells were washed once in PBS, resuspended in binding buffer (10 mM HEPES/NaOH, pH 7.4, 140 mM NaCl, 2.5 mM CaCl2) with propidium iodide (Enzo Life Sciences) and incubated for 15 min, followed by cytometry. Each experiment was performed with technical triplicates of biological triplicates. Median fluorescence intensity (MFI) was calculated, and Welch’s t-tests were performed (ns: not statistically significant, * p < 0.05, ** p < 0.01, *** p < 0.001).

The test system of a further data set is T. brucei aldolase. The experiment in a line: Aldolase western blot of BSF lysates. The class given is cell-based, Trypanosoma brucei. Conditions: POMHEX 6 µM, 2.5 h. The source says:
(§2) The following supporting information can be downloaded at: https://www.mdpi.com/article/10.3390/pathogens12111290/s1, Figure S1: Multiple sequence alignment of TbENO, HsENO2, and NfENO. Amino acid sequences of TbENO (Tb927.10.2890), HsENO2 (ENOG, P09104), and NfENO (NfTY_054390) were aligned using Clustal Omega (EMBL-EBI). Similar amino acids are indicated with (:) and absolute conservation of residues by (*). Figure S2: BSF morphology rapidly changes upon POMHEX treatment. For imaging, BSF (427 strain parasites) parasites bearing the transgene pXS6 AldoPTSeYFP (left) or PF pXS2 AldoPTSeYFP (PF 29-13) (right) for constitutive glycosomal expression of eYFP were cultured for 2.5 hr in DMSO vehicle or POMHEX (at 6 µM, a concentration equivalent to 10-fold the EC50 value). Cells were then washed, fixed (4% paraformaldehyde), and imaged on a on Leica 8 DMi8 microscope. Scale bar = 10 µm. Figure S3: The levels of the glycosome-resident protein aldolase change in response to POMHEX treatment. […] Western blots were visualized on a Analytik Jena UVP ChemStudio imager with Visual works imaging software and bands were quantitated using ImageJ. Percent change in aldolase amount was scored after normalization to loading by quantification of a prominent Coomassie-stained band (likely VSG). […] Cell viability was scored by propidium iodide exclusion, followed by analysis of 10,000 cells in the PC5.5 channel.

For data set [4], the system named is BSF parasites (BSF pXS6-eYFP-PTS1). The data set can be described thus: Imaging of BSF cell morphology. The class given is cell-based, Trypanosoma brucei. The note with it: 6 µM, 2.5 h.
Source text: as §2

The next data set has as its system PF parasites (PF 29-13). The data set can be described thus: Imaging of PF cellular and glycosomal morphology. The class given is cell-based, Trypanosoma brucei. The note with it: 6 µM, 2.5 h.
Source text: as §2

The mark [5] stands for this setting: recombinant TbENO ~50 nM, pH 8.0, 15 min preincubation, 3.75 mM 2-PG, read-out: TbENO IC50.
[6] abbreviates: Trypanosoma brucei, 48 h, BSF, two days of culture, read-out: T. brucei BSF EC50.
Where [7] appears, read: Trypanosoma brucei, 48 h, read-out: T. brucei BSF EC50, BSF, two days of culture.

Where two headings read alike, the source gives them in different places. Bounds are passed on as bounds.

Sequence of T. brucei ENO (TbENO) (Q38BV6 entry or part of it): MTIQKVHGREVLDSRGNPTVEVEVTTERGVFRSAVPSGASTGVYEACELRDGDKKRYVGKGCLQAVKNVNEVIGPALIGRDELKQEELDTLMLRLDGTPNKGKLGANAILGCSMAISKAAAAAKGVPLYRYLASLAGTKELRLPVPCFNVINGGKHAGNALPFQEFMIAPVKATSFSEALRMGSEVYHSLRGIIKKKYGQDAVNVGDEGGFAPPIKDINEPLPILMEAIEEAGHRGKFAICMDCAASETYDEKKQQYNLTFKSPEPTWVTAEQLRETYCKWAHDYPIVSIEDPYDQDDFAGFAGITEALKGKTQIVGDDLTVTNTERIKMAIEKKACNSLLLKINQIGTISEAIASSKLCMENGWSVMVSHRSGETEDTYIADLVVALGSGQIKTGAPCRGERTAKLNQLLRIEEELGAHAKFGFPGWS

Take `O=C1C(P(=O)(O)O)CCCCN1OCc1ccccc1` (stereo not drawn) [Benzyl-HEPTA]: the IC50 on T. brucei ENO (TbENO) (setting [5]) and in the data set on HsENO2 was above 10 µM each time. For the same compound, the half-maximal effective concentration (EC50) in the data set on T. brucei BSF parasites (setting [6]) was above 10 µM.

Take `O=C1C(P(=O)(O)O)CCN1OCc1ccccc1` (stereo not drawn) [Benzyl-deoxy-SF2312]: the “activity against TbENO at 10 µM” value at T. brucei ENO (TbENO) (at 10 µM) is listed as “not active”. For the same compound, the IC50 on T. brucei ENO (TbENO) (setting [5]) and in the data set on HsENO2 was above 10 µM throughout. The 50% effective concentration (EC50) in the data set with T. brucei BSF parasites (setting [6]) is above 10 µM.

Consider `O=C1C(P(=O)(O)O)CCCN1OCc1ccccc1` (stereo not drawn) [BenzylHEX], for which the IC50 at T. brucei ENO (TbENO) (setting [5]) is above 10 µM. The EC50 with T. brucei BSF parasites (setting [6]) was above 10 µM. Further, in the data set on HsENO2, the “activity against ENO2 (in words)” value is given as “not active” and the IC50 is above 10 µM.

Turning to `O=C1C(P(=O)(O)O)CCN1O` (stereo not drawn) [Deoxy-SF2312, (1-hydroxy-2-oxopyrrolidin-3-yl) phosphonic acid], the IC50 was 0.6 ± 0.23 µM on T. brucei ENO (TbENO) and 0.1 ± 0.04 µM with HsENO2. Further, in the data set on T. brucei BSF parasites (setting [7]), the EC50 is above 10 µM.

Take `O=C1C(P(=O)(O)O)CCCCN1O` (stereo not drawn) [HEPTA, (1-hydroxy-2-oxoazepan-3-yl) phosphonic acid]: at T. brucei ENO (TbENO), the half-inhibitory concentration (IC50) is above 10 µM and the “activity against TbENO (in words)” value is listed as “not active”. For the same compound, the EC50 in the data set on T. brucei BSF parasites (setting [7]) was above 10 µM. Also, the IC50 with HsENO2 is 5.8 ± 0.88 µM.

With `O=C1C(P(=O)(O)O)CCCN1O` (stereo not drawn) [HEX, (1-hydroxy-2-oxopiperidin-3-yl) phosphonic acid], the results for the IC50 on T. brucei ENO (TbENO) and with HsENO2 were 2.1 ± 1.1 µM and 0.36 ± 0.04 µM, respectively. Besides, the 50% effective concentration (EC50) was 10 ± 1 µM in the data set on T. brucei BSF parasites (setting [7]); 10 ± 1.4 µM with T. brucei BSF parasites (Trypanosoma brucei, read-out: T. brucei BSF EC50, HEX with formaldehyde, with 2 molar equivalent formaldehyde); above 10 µM with T. brucei BSF parasites (read-out: T. brucei BSF EC50, BSF, two days of culture). Also, in the data set with ENO1-deficient tumors, the “efficacy against ENO1-deficient tumors” value is recorded as “curative”. For the same compound, in data set [1], the tolerability entry is recorded as “extremely well-tolerated”.

For `CC(C)(C)C(=O)OCOP(=O)(OCOC(=O)C(C)(C)C)C1CCCN(O)C1=O` (stereo not drawn) [POMHEX], the IC50 on T. brucei ENO (TbENO) (setting [5]) is 2.8 ± 0.64 µM; in the data set with HsENO2, above 10 µM. In addition, the EC50 with T. brucei BSF parasites (setting [6]) came to 0.61 ± 0.08 µM; with T. brucei PF parasites (PF parasites cultured in glucose-free medium, read-out: PF EC50, glucose-free medium), 5 ± 0.14 µM; in the data set with T. brucei PF parasites (PF parasites cultured in standard (5 mM) glucose, read-out: PF EC50, standard glucose), 0.81 ± 0.07 µM. For the same compound, in the data set on BSF parasites [2], the “ROS levels compared to untreated parasites” value is “significant reduction in ROS levels”. In addition, the “cell death by PI exclusion, 50 µM” value in the data set on BSF parasites [3] (50 µM) was “did not lead to increased cell death”. In addition, the “cell death by PI exclusion, higher concentration” value in the data set with BSF parasites [3] (100 µM) is “increased cell death”. Moreover, in the data set on T. brucei aldolase, the “decrease of aldolase levels vs vehicle-treated cells” value was found to be 28%. For the same compound, in the data set with T. brucei aldolase, the “range of aldolase reduction in three other replicates” value is on record as 28-55%. In addition, the BSF cell morphology result in [4] is recorded as “rapid change to overall cell shape”. Also, the “PF cellular and glycosomal morphology” value in the data set with PF parasites (PF 29-13) is given as “remained largely unchanged”.

`CC(C)(C)C(=O)OCOP(=O)(OCOC(=O)C(C)(C)C)C1CC(O)N(O)C1=O` (stereo not drawn) [POMSF]: the EC50 in the data set on T. brucei BSF parasites (BSF, two days of culture, read-out: T. brucei BSF EC50) stood at 0.45 ± 0.1 µM.

For `OO` [hydrogen peroxide, reference compound], in the data set on BSF parasites [2], the “ROS levels compared to untreated parasites” value is reported as “increase in reactive species”.
